From paper PMC13334477 (RSC Medicinal Chemistry, 2026)
“And” between values parts separate entries of the source, which are not always exact repeats. Equal entries are not always repeated. Where two headings read alike, the source gives them in different places.

Columns and labels:
HeLa P4 cells = experiment: Cell viability assay (CellTiter 96 AQueous One); type: cell-based; details: read-out: EC50 (cell viability)
[1] = target: Htel DNA G4 (human telomeric); experiment: Native ESI-MS, Htel; type: binding; details: 10 μM DNA, 20 μM ligand, 100 mM ammonium acetate
Protocol: (§1) Oligonucleotides were purchased lyophilized and RP-cartridge purified from Eurogentec (Kanaka Eurogentec, Seraing, Belgium), then buffer exchanged with ammonium acetate (5 M; Sigma-Aldrich, Saint-Quentin-Fallavier, France) using Amicon Ultra (3 K cut-off; Merck Millipore, Cork, Ireland). The concentrations of the initial stock solutions of DNA/RNA (∼1 mM) were measured by UV absorbance at 260 nm. Sample solutions were prepared by diluting the appropriate volume of oligonucleotide stock solutions to reach 10 μM of DNA/RNA and 20 μM of ligand, in 100 mM ammonium acetate. The solutions were incubated for 16 h at 4 °C before analysis by mass spectrometry. […] These parameters ensured a good signal intensity without disrupting noncovalent complexes, which was verified using d[G4T4G4]2 as a control. The presented spectra of all DNA/RNA used in this work (Fig. 5, S9 and S10) result from 8 min accumulations. The abundance of each species, M, M + 1L, M + 2L and M + 3L complexes, where M is a monomer oligonucleotide and L is a ligand, was determined from their peak area signals (A), from the sum of the −4, −5 and −6 charge states for DNA and from the sum of the −5, −6 and −7 charge states for RNA, assuming that their response factors are equal. The molar concentrations were then calculated knowing the total amount of oligonucleotide [M]tot: [drawing 1] [drawing 2] [drawing 3] [drawing 4] The concentration of the free ligand, [L]free, was determined from its total concentration [L]tot:[L]free = [L]tot − [M + 1L] − 2[M + 2L] − 3[M + 3L]Apparent consecutive dissociation constants (Kd1, Kd2 and Kd3) were calculated by using the following equations: [drawing 5] [drawing 6] [drawing 7]
(§2) We further analysed the formation of the DBA/G4 complexes by native electrospray ionization mass spectrometry (ESI-MS). We initially attempted to analyze DBA binding to the primary G4 targets from HIV-1 (HIVpro1, HIVpro2, LTR4 and rLTR4 RNA). […] These sequences span the major G4 topological classes and provide a representative assessment of DBA binding across diverse G4 architectures. We also included two DNA duplex controls (DK100 and DK66) to evaluate binding selectivity. This ESI-MS approach enables direct determination of binding stoichiometry, quantification of each species in solution, and calculation of dissociation constants (Kd) from the relative abundances of free and bound forms.[88,97]
(§3) In the ESI-MS conditions, the rLTR4 G4 (10 μM) forms a dimeric structure. […] Among the six DNA and RNA tested here (Fig. 5B, S9 and S10) only rLTR4 presented 1 : 3 G4/DBA complexes. In all cases but one, the 1 : 1 stoichiometry represents the major species in solution while for rLTR4 it is the 1 : 2 (green). […] For TG4T tetramolecular G4 or G4T4G4 bimolecular G4 only 1 : 1 and 1 : 2 complexes were detected (Fig. S9A and S10A). […] The weakest binding was obtained for the G4T4G4 antiparallel G4 and Htel sequence with Kd1s ranging from 11 μM for to 500 μM (Table 2).

[2] = target: G4T4G4 DNA G4 (antiparallel); experiment: Native ESI-MS, G4T4G4; type: binding; details: 10 μM DNA, 20 μM ligand, 100 mM ammonium acetate
Protocol: as §1, §2, §3

[3] = test system: DK100 (DNA, duplex) CGCGGGCCCGCG; experiment: native ESI-MS; details: 100 mM ammonium acetate (NH4+), no K+, apparent, 10 μM DNA, 20 μM ligand, 4 °C incubation
[4] = test system: HIVpro2-FT (hybrid DNA G4); experiment: FRET melting assay, HIVpro2-FT; type: binding, HIV-1; details: ligand 1 μM, DNA 0.2 μM
Protocol: (§4) Doubly labelled oligonucleotides with fluorescein and TAMRA were purchased lyophilized and RP-cartridge purified from Eurogentec (Kanaka Eurogentec, Seraing, Belgium). FRET melting experiments were run on Stratagene Mx3005P real-time PCR equipment in 96-well plates on the DNA sequences listed Table 1. Experiments were performed in 10 mM lithium cacodylate buffer (pH 7.2) and 10 mM KCl and 90 mM LiCl as previously described.[45,46] The DNA concentration was 0.2 μM. The stabilization (ΔT1/2) induced by compounds was calculated as the difference between the Tm of the nucleic acid alone and that measured with a ligand concentration of 1 μM. Data are presented as averages of three independent measurements, each conducted in duplicate (λexc = 492 nm, λem = 516 nm, T interval = 25–95 °C, ramp: 25 °C for 5 min, then 1 °C min^−1, measurements every 1 °C, 8× magnification of the fluorescence signal). The G4 selectivity of the ligands with respect to the duplex was evaluated by determining the Tm values in the presence of 0, 3 or 10 μM of the duplex competitor ds26.
(§5) In this assay, we performed thermal denaturation experiments by heating and recording the fluorescence of DNA oligonucleotides doubly labelled with fluorescein and TAMRA fluorophores (Fig. 3 and S7). Ligand binding to the G4 stabilises the structure, resulting in an increase in the half-dissociation temperature of the structure (ΔT1/2). As a first approximation, the higher the ΔT1/2 (ΔT1/2 higher), the higher the affinity of the ligand for the target.[45]
(§6) The fluorescently labeled oligonucleotides were dissolved at a concentration of 0.2 μM in 10 mM lithium cacodylate buffer (pH 7.2) with 10 mM KCl and 90 mM LiCl. […] E) Radar plot representation that summarizes the FRET-melting results (ΔT1/2 (°C)) for each ligand in the presence of HIVpro1-FT (green), HIVpro2-FT (grey), LTR4-FT (bleu), and Htel-FT (red). Data are the results of at least three independent experiments in which each data point was performed in duplicate.

[5] = test system: LTR4-FT (parallel DNA G4); experiment: FRET melting assay, LTR4-FT; type: binding, HIV-1; details: ligand 1 μM, DNA 0.2 μM
Protocol: as §4, §5, §6

[6] = test system: HIVpro1-FT (anti-parallel DNA G4); experiment: FRET melting assay, HIVpro1-FT; type: binding, HIV-1; details: ligand 1 μM, DNA 0.2 μM
Protocol: as §4, §5, §6

TG4T (DNA, G4) TGGGGT = experiment: native ESI-MS; details: 100 mM ammonium acetate (NH4+), no K+; apparent, site 1 of 2; 10 μM DNA, 20 μM ligand, 4 °C incubation
HIV-1 = experiment: microbe, parasite or virus in culture; details: Human immunodeficiency virus 1, HeLaP4, read-out: IC50 (infectivity inhibition), native HIV-1, MOI 1, compound added 30 min before infection, 24 h, β-gal reporter
[7] = HeLaP4, 24 h, 24 h treatment, formazan quantification

Row | Compound | EC50 (HeLa P4 cells; 24 h treatment, formazan quantification) [µM] | EC50 (HeLa P4 cells; [7]) [µM] | Kd ([1]; read-out: Kd1 Htel) [µM] | Kd ([1]; read-out: Kd2 Htel) [µM] | Kd ([2]; read-out: Kd1 G4T4G4) [µM] | Kd ([2]; read-out: Kd2 G4T4G4) [µM] | Kd1 ([3]; site 1 of 2) [µM] | ΔT1/2 HIVpro2 ([4]; +10µM ds26) [°C] | ΔT1/2 HIVpro2 ([4]; No ds26) | ΔT1/2 LTR4 ([5]; +10µM ds26) [°C] | ΔT1/2 HIVpro1 ([6]; +10µM ds26) [°C] | ΔT1/2 HIVpro1 ([6]; No ds26) | Kd1 (TG4T (DNA, G4) TGGGGT) [µM] | Kd1 ([3]; site 1 of 2, almost no complex) [µM] | ΔT1/2 LTR4 ([5]; No ds26) | IC50 (HIV-1) [µM] | Kd1 ([3]; almost no complex detected) [µM] | EC50 (HeLa P4 cells; HeLaP4, 24 h) [µM]
1 | c1ccc(-[n+]2c3ccc4ccccc4c3cc3c4ccccc4ccc32)cc1 [DBA5] | ~15 | 16.7 | 14.5 | 24.7 | 129 | 33.4 | 40.04 | 1.7±0.9 | 1.9±0.1 °C | 6.0±1.3 | 3.6±0.04 | 5.0±0.03 °C | 21.57 |  |  |  |  | 
2 | COc1ccc(-[n+]2c3ccc4cc(OC)ccc4c3cc3c4ccc(OC)cc4ccc32)cc1 [DBA3] |  | 4.3 | 52.4 | 27.2 | 36.9 | 37 |  | 3.8±0.6 | 3.5±0.2 °C and 3.5 °C | 10.2±0.3 | 5.0±0.1 | 6.3±0.7 °C and 6.3 °C | 13.62 | 155.63 | 10.6±0.7 °C | 4.3 |  | 
3 | COc1ccc2c(ccc3c2cc2c4ccc(OC)cc4ccc2[n+]3-c2ccccc2)c1 [DBA1] |  | 5.2 | 497 | 103 | 47.1 | 38.6 |  | 3.3±0.4 | 4.2±1.4 °C | 10±0.5 | 4.4±0.7 | 6.9±0.04 °C | 14.69 |  | 11±0.2 °C | 0.9 | 1027.52 | 
4 | COC(=O)c1ccc(-[n+]2c3ccc4cc(OC)ccc4c3cc3c4ccc(OC)cc4ccc32)cc1 [DBA2] |  | 2.9 | 41.1 | 35.3 | 51.2 | 33.6 |  | 2.0±0.4 | 2.1±0.2 °C and 2.1 °C | 7.3±0.4 | 3.9±0.2 | 5.6±0.3 °C and 5.6 °C | 6.09 |  | 9.4±0.3 °C | 3.1 | 833.14 | 
5 | COc1ccc2c(ccc3c2cc2c4ccc(OC)cc4ccc2[n+]3-c2ccc([N+](=O)[O-])cc2)c1 [DBA4] |  | ~15 | 11.2 | 55.6 | 46.2 | 26.6 | 38.42 | 3.0±0.8 | 3.8±0.3 °C and 3.8 °C | 10±0.7 | 5.1±0.5 | 7.0±2.0 °C and 7 °C | 5.42 |  | 11±0.5 °C and 11 °C | 1 |  | 15.4
